Measured values: patent EP4793281A1, “ORGAN FIBROSIS-RELATED MICROPEPTIDE (OFMP) AND USE THEREOF” (Nanjing Anji Biological Technology Co., Ltd., priority 2023, dated 2025)

Tests used:
Format in all cases: cell-based
[1] = system: human hepatic stellate cells LX-2; assay: inhibitory effect in human liver fibrosis cell model (TGFβ1-stimulated), qPCR of fibrosis gene mRNA; conditions: for difference from the positive drug hydronidone group: liver fibrosis cells, hydronidone 20µmol; for therapeutic effect on liver fibrosis: overall conclusion from the LX-2 cell model
Description: (§1) In embodiments, the method for detecting the inhibitory effect of micropeptide OFMP in a fibrotic cell model by the real-time fluorescence quantitative PCR method comprises: • counting and inoculating human hepatic stellate cells LX-2, human non-small cell lung cancer cell line A549, and human renal proximal tubular cells HK2 to culture plates; • except for the control group, adding 10nmol of recombinant human TGFβ1 stimulating factor to stimulate continuously for 24 h; • extracting and collecting the total RNA of the cell samples with a TRIzol reagent, and then reverse-transcribing the extracted total RNA using a reverse transcription reagent, and performing qPCR reaction using the qPCR premix solution; and • detecting mRNA expression levels of genes Colla1 and α-SMA using a real-time fluorescence quantitative PCR instrument.
(§2) According to the TRIzol reagent manual of Life Invitrogen, the total RNA of the cell samples was extracted and collected. Then, the purity and concentration of the extracted RNA was quantified by a NanoDrop 2000 ultra micro spectrophotometer. The integrity of the extracted RNA was inspected and ensured by agarose gel electrophoresis. A reverse transcription reagent HiScript® III RT SuperMix for qPCR (+ genomic DNA wiper) was used to perform reverse transcription on the extracted total RNA and a qPCR premix liquid ChamQ SYBR qPCR Master Mix was used to perform qPCR reaction.
(§3) After the above components were mixed well, the following procedure proceeded: initial denaturation 95°C 30s, 95°C 10s, 60°C 30s, 50 cycles. After the qPCR reaction was completed, the Cq value of each sample well was collected. The maximum error of the Cq values among the three duplicate wells of each sample should be no more than 0.5 to ensure data accuracy.
(§4) Human hepatic stellate cells LX-2, human non-small cell lung cancer cell line A549, and human renal proximal tubular cells HK2 were cultured in a 37°C 5% CO2 cell incubator until the cell density was above 80%, and the cells were digested and collected by trypsin, and centrifuged. After the supernatant was discarded, the cells were counted by a cell counter, inoculated to six-well cell culture plates, and put into a 37°C 5% CO2 cell incubator to continue the culturing. The culture medium was sucked out after the cells were cultured for 24 h, a 2‰ DMSO solvent was added as a negative control, 20µmol of hydronidone was added as a positive control, 40µmol, 10µmol, 2.5µmol, 625nmol and 156nmol of the synthetic peptide OFMP were added in the equal proportion for other groups as administration groups, 10nmol of recombinant human TGFβ1 stimulating factor was added to other groups except the control groups half an hour later to continuously stimulate for 24 h, and the mRNA expression levels of genes Colla1, TGFβ1 and CTGF in OFMP3178, and the mRNA expression levels of genes Colla1 and α-SMA in OFMP2067 and OFMP1080 were detected.

[2] = system: Human renal proximal tubular cells HK2; assay: inhibitory effect in human renal fibrosis cell model (TGFβ1-stimulated), qPCR of fibrosis gene mRNA; conditions: for therapeutic effect on renal fibrosis: overall conclusion from the HK2 cell model; for difference from the positive drug hydronidone group: renal fibrosis cells, hydronidone 20µmol
Description: as §1, §2, §3
as §4, with “Human” for “Human hepatic stellate cells LX-2, human non-small cell lung cancer cell line A549, and human”

[3] = system: Human non-small cell lung cancer cell line A549; assay: inhibitory effect in human pulmonary fibrosis cell model (TGFβ1-stimulated), qPCR of fibrosis gene mRNA; conditions: for therapeutic effect on pulmonary fibrosis: overall conclusion from the A549 cell model; for difference from the positive drug Nintedanib group: pulmonary fibrosis cells, Nintedanib 2µmol
Description: as §1, §2, §3
as §4, with “Human” for “Human hepatic stellate cells LX-2, human”, “A549 was” for “A549, and human renal proximal tubular cells HK2 were”, “2µmol” for “20µmol”, “Nintedanib” for “hydronidone”

[4] = different concentrations (40µmol to 156nmol), 10nmol TGFβ1, 24 h, compared with the model group

Row | Substance | mRNA expression level of gene Colla1 in liver fibrosis cells [1, 4] | difference from the positive drug hydronidone group [1] | therapeutic effect on liver fibrosis [1] | mRNA expression level of gene Colla1 in liver fibrosis cells ([1]; treatment condition 40µmol-24h) | mRNA expression level of gene α-SMA in liver fibrosis cells ([1]; treatment condition 40µmol-24h) | mRNA expression level of gene Colla1 in renal fibrosis cells [2, 4] | therapeutic effect on renal fibrosis [2] | mRNA expression level of gene Colla1 in renal fibrosis cells ([2]; treatment condition 40µmol-24h) | mRNA expression level of gene Colla1 in pulmonary fibrosis cells [3, 4] | therapeutic effect on pulmonary fibrosis [3] | difference from the positive drug hydronidone group [2] | difference from the positive drug Nintedanib group [3] | mRNA expression level of gene Colla1 in pulmonary fibrosis cells ([3]; treatment condition 40µmol-24h) | other results
1 | OFMP1080 (MRHRLVSLSVTSCVTPAAGTRRGSAGAVGTNTGRGGPPPHALRASGEQSPAQGVS) | significantly decreased | not a significant difference | good therapeutic effect | most significant decrease | most significant decrease | significantly decreased | good therapeutic effect | most significant decrease | significantly decreased | good therapeutic effect | – | – | – | mRNA expression level of gene Colla1 in pulmonary fibrosis cells ([3]; treatment condition 10µmol-24h): most significant decrease
2 | OFMP3178 (MSLSICTLCLLPRRQEYCILKVPGLLFFLITNDLGSSDHSCLPRVKVPFKALLPGEL) | significantly decreased | a significant difference | good therapeutic effect | most significant decrease | – | significantly decreased | good therapeutic effect | most significant decrease | significantly decreased | good therapeutic effect | a significant difference | a significant difference | most significant decrease | mRNA expression level of gene CTGF in liver fibrosis cells [1, 4]: significantly decreased; mRNA expression level of gene CTGF in liver fibrosis cells ([1]; treatment condition 40µmol-24h): most significant decrease; mRNA expression level of gene CTGF in renal fibrosis cells [2, 4]: significantly decreased; mRNA expression level of gene TGFβ1 in renal fibrosis cells [2, 4]: significantly decreased; mRNA expression level of gene CTGF in renal fibrosis cells ([2]; treatment condition 40µmol-24h): most significant decrease; mRNA expression level of gene TGFβ1 in renal fibrosis cells ([2]; treatment condition 40µmol-24h): most significant decrease; mRNA expression level of gene CTGF in pulmonary fibrosis cells [3, 4]: significantly decreased; mRNA expression level of gene TGFβ1 in pulmonary fibrosis cells [3, 4]: significantly decreased; mRNA expression level of gene CTGF in pulmonary fibrosis cells ([3]; treatment condition 40µmol-24h): most significant decrease; mRNA expression level of gene TGFβ1 in pulmonary fibrosis cells ([3]; treatment condition 40µmol-24h): most significant decrease
3 | OFMP2067 (MHLDHSDPITRDHMGSVMAQVRQKLFQFLQAEPHNSLGKAARRLSLMLHGLVTPSLP) | significantly decreased | a significant difference | good therapeutic effect | most significant decrease | most significant decrease | significantly decreased | good therapeutic effect | most significant decrease | significantly decreased | good therapeutic effect | a significant difference | a significant difference | most significant decrease | mRNA expression level of gene α-SMA in liver fibrosis cells [1, 4]: significantly decreased; mRNA expression level of gene α-SMA in renal fibrosis cells [2, 4]: significantly decreased; mRNA expression level of gene α-SMA in renal fibrosis cells ([2]; treatment condition 40µmol-24h): most significant decrease; mRNA expression level of gene α-SMA in pulmonary fibrosis cells [3, 4]: significantly decreased; mRNA expression level of gene α-SMA in pulmonary fibrosis cells ([3]; treatment condition 40µmol-24h): most significant decrease
